Reference: ChEMBL document CHEMBL1909046, “DrugMatrix in vitro pharmacology data”

Assays:
[1] = DRUGMATRIX: Calcium Channel Type L, Dihydropyridine radioligand binding (ligand: [3H] Nitrendipine); format: cell membranes, Rattus norvegicus, Wistar, Cerebral cortex, Membrane; details: Not Active = under 50% inhibition at 10 µM
Glycine receptor = Glycine receptor (Rattus norvegicus, UniProt P22771+P24524+P07727+P20781); format: cell membranes, Wistar, Spinal cord, Membrane; also: in other assays of this panel Not Active means under 50% inhibition at 10 µM
[2] = target: T1, Cysteinyl leukotriene receptor 1 (Homo sapiens, UniProt Q9Y271); format: cell membranes, Membrane; details: cho-k1; also: in other assays of this panel Not Active means under 50% inhibition at 10 µM
T1 sequence (Q9Y271 whole entry): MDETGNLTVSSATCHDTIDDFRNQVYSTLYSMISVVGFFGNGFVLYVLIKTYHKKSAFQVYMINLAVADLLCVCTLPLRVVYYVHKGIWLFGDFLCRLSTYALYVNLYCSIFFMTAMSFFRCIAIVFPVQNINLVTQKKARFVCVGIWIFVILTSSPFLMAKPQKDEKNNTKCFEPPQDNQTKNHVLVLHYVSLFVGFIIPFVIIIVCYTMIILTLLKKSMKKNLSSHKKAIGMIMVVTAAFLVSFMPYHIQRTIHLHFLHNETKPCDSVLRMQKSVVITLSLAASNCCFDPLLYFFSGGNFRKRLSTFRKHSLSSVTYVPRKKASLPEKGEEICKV

Melanocortin receptor 3 = Melanocortin receptor 3 (Homo sapiens, UniProt P41968); format: cell membranes, Membrane; details: hek293; also: in other assays of this panel Not Active means under 50% inhibition at 10 µM
Sequence of Melanocortin receptor 3 (P41968 whole entry): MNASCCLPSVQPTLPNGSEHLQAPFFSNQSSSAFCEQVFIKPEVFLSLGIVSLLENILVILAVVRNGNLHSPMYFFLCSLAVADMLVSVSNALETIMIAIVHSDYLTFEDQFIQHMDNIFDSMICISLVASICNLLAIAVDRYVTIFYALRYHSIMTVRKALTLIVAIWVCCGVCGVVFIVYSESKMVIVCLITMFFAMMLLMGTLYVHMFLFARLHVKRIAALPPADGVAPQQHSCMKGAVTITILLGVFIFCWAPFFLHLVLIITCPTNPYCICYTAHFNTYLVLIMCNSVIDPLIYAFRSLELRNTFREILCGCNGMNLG

[3] = target: T2, Muscarinic acetylcholine receptor M5 (Homo sapiens, UniProt P08912); format: cell membranes, Membrane; details: cho-k1; also: in other assays of this panel Not Active means under 50% inhibition at 10 µM
T2 sequence (P08912 whole entry): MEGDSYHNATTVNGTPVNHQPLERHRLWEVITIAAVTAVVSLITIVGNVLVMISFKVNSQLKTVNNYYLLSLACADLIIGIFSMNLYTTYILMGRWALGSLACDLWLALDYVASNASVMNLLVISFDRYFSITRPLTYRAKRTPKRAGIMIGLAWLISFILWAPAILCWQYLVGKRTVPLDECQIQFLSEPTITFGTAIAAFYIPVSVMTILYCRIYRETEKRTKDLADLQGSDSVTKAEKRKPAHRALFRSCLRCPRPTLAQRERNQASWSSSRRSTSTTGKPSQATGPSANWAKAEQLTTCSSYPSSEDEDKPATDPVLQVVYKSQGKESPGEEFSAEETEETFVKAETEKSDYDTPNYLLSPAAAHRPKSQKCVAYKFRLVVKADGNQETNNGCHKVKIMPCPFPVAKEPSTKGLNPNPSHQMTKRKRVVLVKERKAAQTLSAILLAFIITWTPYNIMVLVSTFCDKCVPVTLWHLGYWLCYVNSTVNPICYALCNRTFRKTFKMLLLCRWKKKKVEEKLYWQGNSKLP

[4] = target: Kappa-type opioid receptor (Homo sapiens, UniProt P41145); experiment: DRUGMATRIX: Opiate kappa (OP2, KOP) radioligand binding (ligand: [3H] Diprenorphine); format: cell membranes, HEK293, Membrane; details: Not Active = under 50% inhibition at 10 µM
Sequence of Kappa-type opioid receptor (P41145 whole entry): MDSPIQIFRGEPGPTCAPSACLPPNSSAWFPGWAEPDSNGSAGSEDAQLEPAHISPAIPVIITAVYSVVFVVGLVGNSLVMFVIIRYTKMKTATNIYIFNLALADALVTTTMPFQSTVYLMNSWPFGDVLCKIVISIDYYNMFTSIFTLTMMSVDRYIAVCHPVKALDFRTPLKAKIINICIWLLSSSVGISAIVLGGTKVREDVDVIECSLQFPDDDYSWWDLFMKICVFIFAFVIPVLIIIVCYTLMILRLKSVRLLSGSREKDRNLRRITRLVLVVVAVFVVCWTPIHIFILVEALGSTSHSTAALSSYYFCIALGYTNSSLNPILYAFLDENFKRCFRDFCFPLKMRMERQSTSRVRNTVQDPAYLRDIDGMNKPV

[5] = DRUGMATRIX: Phosphodiesterase PDE3 enzyme inhibition (substrate: [3H]cAMP + cAMP); format: tissue-based, Homo sapiens; details: platelet; Not Active = under 50% inhibition at 10 µM
[6] = target: T3, Angiotensin-converting enzyme (Oryctolagus cuniculus, UniProt P12822); format: tissue-based, Lung
T3 sequence (P12822 whole entry): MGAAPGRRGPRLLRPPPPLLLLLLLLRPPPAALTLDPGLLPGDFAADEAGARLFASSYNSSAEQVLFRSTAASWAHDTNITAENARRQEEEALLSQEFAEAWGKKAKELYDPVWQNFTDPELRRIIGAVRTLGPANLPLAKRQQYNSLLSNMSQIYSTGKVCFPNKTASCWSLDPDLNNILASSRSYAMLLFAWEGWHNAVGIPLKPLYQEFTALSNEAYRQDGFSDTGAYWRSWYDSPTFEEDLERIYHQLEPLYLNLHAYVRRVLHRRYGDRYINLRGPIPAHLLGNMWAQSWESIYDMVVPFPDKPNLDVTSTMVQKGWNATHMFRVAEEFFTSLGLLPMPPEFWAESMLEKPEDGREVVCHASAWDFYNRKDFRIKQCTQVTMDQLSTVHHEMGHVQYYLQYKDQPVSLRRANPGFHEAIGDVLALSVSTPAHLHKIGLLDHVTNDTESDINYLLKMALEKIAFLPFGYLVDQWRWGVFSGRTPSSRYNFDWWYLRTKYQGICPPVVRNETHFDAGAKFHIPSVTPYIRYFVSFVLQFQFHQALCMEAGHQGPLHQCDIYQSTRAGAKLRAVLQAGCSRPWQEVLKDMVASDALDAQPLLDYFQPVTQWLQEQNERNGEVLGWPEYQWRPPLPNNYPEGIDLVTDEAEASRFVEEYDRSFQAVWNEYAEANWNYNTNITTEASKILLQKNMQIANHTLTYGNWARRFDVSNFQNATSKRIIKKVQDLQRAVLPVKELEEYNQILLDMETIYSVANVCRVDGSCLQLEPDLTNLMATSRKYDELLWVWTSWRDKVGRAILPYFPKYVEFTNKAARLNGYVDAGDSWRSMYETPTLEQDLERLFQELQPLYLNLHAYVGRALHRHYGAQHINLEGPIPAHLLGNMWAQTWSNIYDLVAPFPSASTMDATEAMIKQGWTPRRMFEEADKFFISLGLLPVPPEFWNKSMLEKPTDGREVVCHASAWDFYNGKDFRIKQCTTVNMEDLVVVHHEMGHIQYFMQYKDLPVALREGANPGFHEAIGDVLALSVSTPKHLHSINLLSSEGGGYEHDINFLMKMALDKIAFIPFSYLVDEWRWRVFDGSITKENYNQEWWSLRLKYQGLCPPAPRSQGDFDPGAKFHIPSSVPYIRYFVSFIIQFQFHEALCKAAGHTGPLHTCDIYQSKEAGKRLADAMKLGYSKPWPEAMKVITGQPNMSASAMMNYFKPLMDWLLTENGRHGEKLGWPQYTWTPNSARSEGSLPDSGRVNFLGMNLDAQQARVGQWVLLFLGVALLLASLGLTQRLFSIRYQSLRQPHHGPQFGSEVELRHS

Compound	IC50 [1]	Ki [1]	IC50 (Glycine receptor)	IC50 [2]	IC50 (Melanocortin receptor 3)	IC50 [3]	IC50 ([4]; hek293)	IC50 [5]	Ki [5]	IC50 [6]	Ki [4]	IC50 ([4]; read-out: IC50)	Ki (Glycine receptor)	Ki [2]	Ki (Melanocortin receptor 3)	Ki [3]	Ki [6]
COc1cc(N)nc2[nH]c(-c3ccc(F)cc3)c(-c3ccncc3)c12	Not Active	Not Active	Not Active	Not Active	Not Active	Not Active	Not Active	Not Active	Not Active	Not Active	–	–	–	–	–	–	–
CNS(=O)(=O)Cc1ccc2[nH]cc(CCN(C)C)c2c1	Not Active	Not Active	Not Active	Not Active	Not Active	Not Active	Not Active	Not Active	Not Active	Not Active	–	–	–	–	–	–	–
CCCc1nn(C)c2c(=O)[nH]c(-c3cc(S(=O)(=O)N4CCN(C)CC4)ccc3OCC)nc12	Not Active	Not Active	Not Active	Not Active	Not Active	Not Active	Not Active	Not Active	Not Active	Not Active	–	–	–	–	–	–	–
COc1ccc(/C=C/C(=O)Nc2ccccc2C(=O)O)cc1OC	Not Active	Not Active	Not Active	Not Active	Not Active	Not Active	Not Active	Not Active	Not Active	Not Active	–	–	–	–	–	–	–
CCOC(N)=O	Not Active	Not Active	Not Active	Not Active	Not Active	Not Active	Not Active	Not Active	Not Active	Not Active	–	–	–	–	–	–	–
CC(=O)Nc1nnc(S(N)(=O)=O)s1 [ACETAZOLAMIDE]	–	–	Not Active	Not Active	Not Active	Not Active	Not Active	–	–	Not Active	–	–	–	–	–	–	–
O=c1[nH]c2ccccc2n1CCCN1CCC(n2c(=O)[nH]c3cc(Cl)ccc32)CC1 [DOMPERIDONE]	–	–	Not Active	Not Active	Not Active	Not Active	–	–	–	Not Active	–	–	–	–	–	–	–
CC1=C(CC(=O)O)c2cc(F)ccc2/C1=C\c1ccc(S(C)(=O)=O)cc1 [EXISULIND]	Not Active	Not Active	Not Active	Not Active	Not Active	Not Active	Not Active	Not Active	Not Active	Not Active	–	–	–	–	–	–	–
CC(C)OC(=O)C(C)(C)Oc1ccc(C(=O)c2ccc(Cl)cc2)cc1 [FENOFIBRATE]	–	–	Not Active	Not Active	Not Active	Not Active	Not Active	–	–	Not Active	–	–	–	–	–	–	–
OCCN1CCN(CCCN2c3ccccc3Sc3ccc(C(F)(F)F)cc32)CC1 [FLUPHENAZINE]	–	–	Not Active	Not Active	Not Active	Not Active	–	–	–	Not Active	9.89 µM	24.7 µM	–	–	–	–	–
CN1C2CCCC1CC(NC(=O)c1nn(C)c3ccccc13)C2 (configuration not stated) [GRANISETRON]	–	–	Not Active	Not Active	Not Active	Not Active	Not Active	–	–	Not Active	–	–	–	–	–	–	–
Nc1nc2c(c(=O)[nH]1)N(C=O)C(CNc1ccc(C(=O)N[C@@H](CCC(=O)O)C(=O)O)cc1)CN2 (some centres not stated) [LEUCOVORIN]	Not Active	Not Active	Not Active	Not Active	Not Active	Not Active	Not Active	Not Active	Not Active	Not Active	–	–	–	–	–	–	–
C[C@@H](O)[C@H]1C(=O)N2C(C(=O)O)=C(S[C@@H]3CN[C@H](C(=O)N(C)C)C3)[C@H](C)[C@H]12 [MEROPENEM]	Not Active	Not Active	Not Active	Not Active	Not Active	Not Active	Not Active	Not Active	Not Active	Not Active	–	–	–	–	–	–	–
CC[C@@H](CO)NC(=O)[C@@H]1C=C2c3cccc4c3c(cn4C)C[C@H]2N(C)C1 [METHYSERGIDE]	–	–	Not Active	Not Active	Not Active	Not Active	Not Active	–	–	Not Active	–	–	–	–	–	–	–
CCN(CC)CC#CCOC(=O)C(O)(c1ccccc1)C1CCCCC1 (configuration not stated) [OXYBUTYNIN]	–	–	Not Active	Not Active	Not Active	–	Not Active	–	–	Not Active	–	–	–	–	–	–	–
C=C(C)[C@H]1Cc2c(ccc3c2O[C@@H]2COc4cc(OC)c(OC)cc4[C@@H]2C3=O)O1 [ROTENONE]	Not Active	Not Active	Not Active	Not Active	Not Active	Not Active	–	Not Active	Not Active	Not Active	–	–	–	–	–	–	–
O=c1n(CCCN2CCN(c3cccc(Cl)c3)CC2)nc2ccccn12 [TRAZODONE]	–	–	Not Active	Not Active	Not Active	Not Active	Not Active	–	–	Not Active	–	–	–	–	–	–	–
O=C(O)C(Cl)(Cl)Cl [TRICHLOROACETIC ACID]	Not Active	Not Active	Not Active	Not Active	Not Active	Not Active	–	Not Active	Not Active	Not Active	–	–	–	–	–	–	–
COc1cc(C(=O)NS(=O)(=O)c2ccccc2C)ccc1Cc1cn(C)c2ccc(NC(=O)OC3CCCC3)cc12 [ZAFIRLUKAST]	Not Active	Not Active	Not Active	–	Not Active	Not Active	Not Active	Not Active	Not Active	Not Active	–	–	–	–	–	–	–
STANNOUS FLUORIDE	Not Active	Not Active	Not Active	Not Active	Not Active	Not Active	–	Not Active	Not Active	Not Active	–	–	Not Active	Not Active	Not Active	Not Active	Not Active
THIMEROSAL	Not Active	Not Active	Not Active	Not Active	Not Active	Not Active	–	Not Active	Not Active	Not Active	–	–	Not Active	Not Active	Not Active	Not Active	Not Active
